The values below come from PMC12469827, “Targeting G6PD with Benzimidazole and Thiazole Derivatives Suppresses SIRT 2 and VEGF Expression and Induces Cytotoxicity in Glioma Cells” (International Journal of Molecular Sciences, 2025).

By IC50 is commonly meant the point on the concentration scale where inhibition reaches its midpoint.

For assay [1], the target named is T1, Glucose-6-Phosphate Dehydrogenase (G6PD) (Homo sapiens, UniProt P11413). The assay can be described thus: residual activity of purified recombinant enzyme (NADPH at […] nm) after […] h incubation; supported by CD and intrinsic fluorescence. The assay is classed as biochemical.
The target in assay [2] is T1, Glucose-6-Phosphate Dehydrogenase (G6PD). The assay can be described thus: residual activity of purified recombinant enzyme (NADPH at […] nm) after […] h incubation; supported by intrinsic fluorescence (minimal CD change). The assay is classed as biochemical.

T1 sequence (P11413 2-515): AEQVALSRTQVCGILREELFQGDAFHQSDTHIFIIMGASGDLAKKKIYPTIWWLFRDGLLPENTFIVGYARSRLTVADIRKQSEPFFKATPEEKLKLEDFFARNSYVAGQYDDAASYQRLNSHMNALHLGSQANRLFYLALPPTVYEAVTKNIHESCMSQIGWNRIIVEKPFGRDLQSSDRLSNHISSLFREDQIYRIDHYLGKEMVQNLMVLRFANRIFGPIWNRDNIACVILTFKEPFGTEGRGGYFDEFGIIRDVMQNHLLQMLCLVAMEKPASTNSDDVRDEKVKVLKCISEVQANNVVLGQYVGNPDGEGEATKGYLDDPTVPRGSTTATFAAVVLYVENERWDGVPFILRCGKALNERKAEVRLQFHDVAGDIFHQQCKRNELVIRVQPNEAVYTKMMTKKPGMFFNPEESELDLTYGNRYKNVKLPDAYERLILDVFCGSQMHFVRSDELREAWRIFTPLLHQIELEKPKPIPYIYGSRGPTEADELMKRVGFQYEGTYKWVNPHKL

With `O=[N+]([O-])c1ccc2nc([S+]([O-])Cc3ccccn3)[nH]c2c1` (stereo not drawn) [BZM-7], the IC50 in assay [1] (read-out: IC50) came to 40 µM. For `O=C(Nc1ccc(Cl)cc1)Nc1ncc([N+](=O)[O-])s1` [CNZ-3], the IC50 in assay [1] stood at 121 µM. In the case of `Cc1cnc(C[S+]([O-])c2nc3cc([N+](=O)[O-])ccc3[nH]2)c(C)c1OCC(F)(F)F` (stereo not drawn) [BZM-9], in assay [2], the IC50 worked out at 42 µM.
